{"source": "paper PMC6801822", "about": "“The Bactericidal Activity of Temporin Analogues Against Methicillin Resistant Staphylococcus aureus” (International Journal of Molecular Sciences, 2019)", "key": {"[1]": {"tested_on": "MRSA S. aureus strains (clinical isolates)", "quoted_text": "(§1) Antimicrobial activity of peptides was analyzed through determination of MIC parameter according to the standard microdilution technique performed on 96-well plates. Mueller-Hinton broth (MHB, Sigma Aldrich, St. Louis, MO, USA) was used as the working medium for all bacterial strains. Briefly, inoculum was prepared from freshly grown cultures of bacteria being at their exponential phase of growth. Each well of 96-well plates containing 100 µL of serially diluted peptides in PBS at desired concentration was inoculated with 100 µL of 10^5 CFU/mL of bacterial suspension. Then plates were incubated overnight 37 °C and absorbance was read at 600 nm after 24 h. Wells without peptide were treated as the positive control, while uninoculated MHB was defined as the negative control. All measurements were run in triplicates."}, "[2]": {"tested_on": "MRSA clinical isolate 56A1", "conditions": "MRSA clinical isolate 56A1 (skin); broth microdilution, MHB, 24 h", "quoted_text": "as §1"}, "HaCaT cells": {"tested_on": "HaCaT cells", "experiment": "LDH release assay (CytoTox96)", "assay_type": "cell-based, human", "conditions": "for cytotoxicity (LDH), % of cells: HaCaT, 200 μg/mL", "experimental": "Figure 3 The influence of DAL-PEG-DK5 on physiology of human keratinocytes. The potentially toxic effect of DAL-PEG-DK5 on HaCaT cells was evaluated using (A) MTT and (B) LDH assay. Cells were plated on 96-well plates and incubated overnight. Next, keratinocytes were treated with the peptide at different concentrations (5–200 μg/mL) for 3, 6, 18 h. Mean ± SD n = 2. ** p < 0.005 *** p < 0.001 **** p < 0.0001; 2way ANOVA. (C) Morphology of HaCaT cells was examined by confocal laser scanning microscopy. HaCaT cells were treated with CFS-conjugated DAL-PEG-DK5 (25 μg/mL) for 30 min at 37 °C and were stained with: DAPI and phalloidin for nuclear detection and actin cytoskeleton detection, respectively. Blue – DNA; red – f-actin; green-peptide conjugate; scale bar: 10 μm. Images present single slice of XY stacks.\nTo assess the effect of peptides on the integrity of the plasma membrane, the LDH release assay was performed using the CytoTox96 nonradioactive cytotoxicity assay kit (Promega, Madison, WI, USA) according to the manufacturer’s instructions. Cytotoxicity was calculated with the formula: % cytotoxicity = 100 × (experimental LDH release/ maximum LDH release), where maximum LDH release is after lysis solution addition (Triton X-100). Relative amounts of LDH release were measured (absorbance at 490 nm) using plate reader SpectraMax (Molecular Device, Wokingham, UK). All assays were performed in triplicate."}, "S. aureus USA300": {"tested_on": "S. aureus USA300", "conditions": "MRSA; equal to 40 μg/mL", "quoted_text": "as §1"}, "[3]": {"tested_on": "S. epidermidis ATCC 12228", "conditions": "S. epidermidis ATCC 12228; broth microdilution, MHB, 37 °C, 24 h, triplicates", "quoted_text": "as §1"}, "[4]": {"tested_on": "S. aureus USA300 cytoplasmic membrane", "experiment": "Sytox green uptake (membrane permeabilization)", "assay_type": "cell-based, Staphylococcus aureus", "experimental": "The USA300 strain was grown to mid-logarithmic phase at 37 °C, washed, and resuspended in 10 mM sodium phosphate buffer (pH 7.2) Bacterial cells were then incubated with 1 µM Sytox green for 15 min in the dark. After the addition of desired concentration of peptide conjugate (5–100 µg/mL), the time-dependent increases in fluorescence caused by the binding of the cationic dye to intracellular DNA were monitored (excitation at 485 nm and emission at 520 nm)."}}, "note": "Like-named read-outs stand apart in the source and are kept apart here. Non-standard residues stand in square brackets, D forms with d. Residues, ends and D or L forms follow the SMILES beside them. AEEA = NCCOCCOCC(=O)O", "data": [{"smiles": "CC[C@H](C)[C@H](NC(=O)COCCOCCNC(=O)[C@H](CCCNC(=N)N)NC(=O)[C@H](CC(C)C)NC(=O)[C@H](Cc1ccccc1)NC(=O)CNC(=O)[C@@H](C)NC(=O)[C@@H](N)Cc1ccc(O)cc1)C(=O)N[C@@H](CCCCN)C(=O)N[C@@H](CCCCN)C(=O)N[C@H](C(=O)N[C@@H](CC(C)C)C(=O)N[C@@H](CO)C(=O)N[C@H](CCCCN)C(=O)N[C@H](C(=O)N[C@@H](CCCCN)C(=O)N[C@@H](CCCCN)C(=O)N[C@@H](CC(C)C)C(=O)N[C@@H](CC(C)C)C(N)=O)[C@@H](C)CC)[C@@H](C)CC", "note": "[DAL-PEG-DK5] (H-Y[dA]GFLR[AEEA]IKKILS[dK]IKKLL-NH2; N-terminus assumed)", "values": [{"measurement": "MIC against the majority of tested MRSA strains (90%)", "setting": "[1]; conversion of 40 μg/mL", "value": 17.56, "unit": "µM"}, {"measurement": "MIC against the majority of tested MRSA strains (90%)", "setting": "[1]; estimate of the discussion", "value": 40, "unit": "µg/mL"}, {"measurement": "MIC", "setting": "[2]", "value": 40, "unit": "µg/mL"}, {"measurement": "LDH release from HaCaT cells", "setting": "HaCaT cells; 75 μg/mL", "value": "low, but still significant, release of dehydrogenase"}, {"measurement": "cytotoxicity (LDH), % of cells", "setting": "HaCaT cells; 3 and 6 h", "value": 40, "unit": "%"}, {"measurement": "cytotoxicity (LDH), % of cells", "setting": "HaCaT cells; 18 h", "value": 100, "unit": "%"}, {"measurement": "non-toxic dose for HaCaT cells", "setting": "HaCaT cells; based on MTT and LDH data", "value": "≤ 50", "unit": "µg/mL"}, {"measurement": "MIC", "setting": "S. aureus USA300", "value": 17.56, "unit": "µM"}, {"measurement": "MIC", "setting": "[3]", "value": 60, "unit": "µg/mL"}, {"measurement": "permeabilization of the cell membrane", "setting": "[4]; 5 min post-treatment, peptide 10 μg", "value": "marked permeabilization of the cell membrane"}, {"measurement": "concentration at which permeabilization of the bacterial membrane reached a plateau", "setting": "[4]; USA300, 1 μM Sytox green, 10 mM sodium phosphate buffer pH 7.2, up to 60 min", "value": 25, "unit": "µg/mL"}]}]}
